From US20240374691A1, “GLP-1R AGONISTS FOR USE IN A TREATMENT OF NEUROLOGIAL IMPAIRMENT ASSOCIATED WITH VIRAL INFECTION” (Neuraly, Inc., priority 2021, published 2024)
Read-outs that look alike come from different tables or passages of the source.

Columns and labels:
[1] = in vivo; cited from earlier work
[2] = test system: activated microglia; assay: Microglial activation in vivo after intrastriatal α-synuclein PFF injection; design: species or system C57BL6 mice; conditions: 3 mg/kg s.c. twice a week for 5 months, PFF-injected mice, FIGS. 2A-2B
Excerpt: Mice were perfused and brain tissues collected to allow analysis of activated microglia and cytokine levels following treatment.

[3] = test system: primary microglia; assay: Pro-inflammatory cytokine production by primary microglia in vitro (ELISA); format: cell-based; conditions: NLY01 vs PBS
Protocol: Production of pro-inflammatory cytokines is a marker for microglial activation. Chronic microglial activation is pathogenic. […] Cytokine levels were determined using ELISA. Bars indicate mean±s.e.m. (n=3).

[4] = in vivo
[5] = test system: Tg models of Alzheimer's Disease; assay: Tg models of Alzheimer's Disease (AD); format: in vivo
[6] = in vivo; remark: listed apart in the source

Row | Substance | half-life [1] | Iba-1+ activated microglia in the brain (Iba-1 intensity, microglia density) [2] | cytokine production by microglia ([3]; absence of activation) | pro-inflammatory cytokine levels (C1q, IL1α, TNF-α, IL1β) ([3]; activated microglia, FIGS. 1A-1D) | half-life [4] | amyloid aggregation and tau formation [5] | memory impairment [5] | microglia activation and population of reactive astrocytes in the AD brain [5] | blood-brain barrier traversal [6]
1 | Albiglutide: dipeptidyl peptidase-4-resistant glucagon-like peptide-1 dimer fused to human albumin | four to seven | – | – | – | – | – | – | – | –
2 | NLY01: long-acting PEGylated form of exenatide; PEG 50,000 Da site-specifically conjugated to exenatide peptide | – | reduced | not significantly affected | substantially reduced | 88 h | reduced | ameliorated | significantly inhibited | traverses the blood-brain barrier
